# According to US11952328B2, “Selective ship inhibitors for treating disease” (THE RESEARCH FOUNDATION FOR THE STATE UNIVERSITY OF NEW YORK, priority 2018, dated 2024):
# Key:
# [1] = tested on: RMA cells; assay: Apoptosis (AnnexinV), Caspase 8 and CD95/Fas in RMA cells in culture; format: cell-based, mice
# From the text: FIGS. 5A-5I show the effects of SHIP1 inhibitor as a chemotherapeutic. […] FIG. 5D and FIG. 5E show the representative histograms and box-and-whisker plots of FasL expression by NK cells from C56BL/6 (p=0.0002; Unpaired t test with Welch's correction) or RAG1−/− (p<0.0001; Mann-Whitney U test) tumor challenged, SHIP inhibitor or vehicle treated hosts. […] (NK cells p=0.0192; Unpaired t test with Welch's correction. T cells p=0.0659; Mann-Whitney U test). Additionally, FIGS. 5A-5G show the analysis by flow cytometry on day 3 after hosts receive SHIP inhibitor or vehicle for two consecutive days. NK cells are defined as NK1.1+CD3ε−. The graphs are representative of at least two independent experiments with at least four SHIP inhibitor and vehicle treated mice. […] Viability is expressed as frequency at a given concentration expressed as a percentage of solvent only treated cells. The kill curve summarizes pooled data from three independent experiments using six replicate wells/concentration with mean ±SEM indicated (n=18 per group. One-way ANOVA with Dunnett's multiple comparisons. 0 pM vs. 20 pM Adjusted p value =0.0001. 0 pM vs. 15 pM Adjusted p value =0.0001. 0 pM vs. 10 pM Adjusted p value =0.0001. 0 pM vs. 7.5 pM Adjusted p value =0.0001. 0 pM vs. 5 pM Adjusted p value =0.0001).
# NK cells are able to directly kill target cells through several different mechanisms including both production of perforin and granzymes and induction of apoptosis via Fas-FasL signaling (Arase, H. et al., Fas-mediated cytotoxicity by freshly isolated natural killer cells. J Exp Med. (1995); 181: 1235-1238; Zamai, L. et al., Natural killer (NK) cell-mediated cytotoxicity: differential use of TRAIL and Fas ligand by immature and mature primary human NK cells. J Exp Med. (1998); 188: 2375-2380). […] SHIP1 was recently shown to be recruited to CD95/Fas to set a threshold for induction of Caspase 8, and thereby, a threshold for induction of apoptosis (Park, M. Y. et al., Impaired T-cell survival promotes mucosal inflammatory disease in SHIP1-deficient mice. Mucosal Immunol. (2014); 7: 1429-1439). […]
# [2] = tested on: CT26 colon carcinoma cells; assay: Subcutaneous CT26 colon carcinoma model; format: in vivo, BALB/C mice
# Experimental: FIG. 7A and FIG. 7B show CT26 (FIG. 7A) and MC-38 (FIG. 7B) viability following in vitro treatment with 3AC for 24 h at indicated doses. Relative viability is expressed as frequency compared to solvent only treated cells. Kill curve summarizes pooled data from three independent experiments using six replicate wells/concentration with mean±SEM indicated. BALB/C mice were challenged with subcutaneous injection of CT26 colon carcinoma cells in the right flank. Mice were treated with either 2 consecutive days of 3AC or vehicle control each week as in FIG. 4A. Tumor size at […] 28 days (FIG. 7C), and tumor weight on day 28 determined after dissection of tumor (FIG. 7E). […] C57BL/6 mice were challenged with subcutaneous injection of MC-38 colon carcinoma cells in the right flank. Mice were treated with either 2 consecutive days of SHIP inhibitor or vehicle control each week as in FIG. 4A. Tumor size at 14, 21 and 25 days (FIG. 7D), and tumor weight (FIG. 7F) on day 25 were determined after dissection of tumor. […] FIG. 7A (n=18 per group. One-way ANOVA with Dunnett's multiple comparisons. 0 μM vs. 20 μM Adjusted p value=0.0463. All other concentrations of SHIP inhibitor compared with solvent only N.S.). FIG. 7B (n=18 per group. One-way ANOVA with Dunnett's multiple comparisons. All concentrations of SHIP inhibitor compared with solvent only N.S.). FIGS. 7C-7F graphs represent data from one of two independent experiments. FIG. 7C (n=10. Day 14 p<0.0001, Unpaired t test with Welch's correction. Day 21 p<0.0001, two-tailed student's t-test. Day 28 p<0.0001, two-tailed Student's t-test). FIG. 7E (n=10. P<0.0001, two-tailed Student's t-test) FIG. 7D (n=10. Day 14 p=0.0005, two-tailed student's t-test. Day 21 p=0.0009, two-tailed Student's t-test. Day 25 p=0.0009, two-tailed student's t-test). FIG. 7F (n=10. P=0.0067, two-tailed student's t-test).
# Colorectal cancer is the second leading cause of cancer mortality in the United States (Siegel, R. L. et al., Colorectal cancer statistics, 2017. CA Cancer J Clin. (2017)). […]
# [3] = RMA cells, culture for 12 hours
structure (smiles),measurement,setting,value
"CC(C)CCC[C@@H](C)[C@H]1CC[C@H]2[C@@H]3CCC4C[C@H](N)CC[C@]4(C)[C@H]3CC[C@]12C (stereo partly drawn) [Compound 3AC, 3-α-aminocholestane]",frequency of death receptor CD95/Fas,[1]; 3AC-treated RMA cells,increased frequency
same,activation of Caspase 8,[1]; [3],increased activation of Caspase 8
same,induction of apoptosis (AnnexinV),[1]; [3],significant induction of apoptosis
same,tumor weight,"[2]; day 28, vs vehicle",significant reduction
same,tumor size,"[2]; two consecutive days each week, days 14, 21, 28, vs vehicle",significant reduction
same,histological analysis (H&E) of tumors,[2]; vs vehicle,prominent zones of tumor cell death
